In publication PMC12085588 (Scientific Reports, 2025):
Read-outs that look alike come from different tables or passages of the source.

What was measured:
[1] = system: A549 cells; experiment: Cytotoxicity assay; type: cell-based, human
[2] = Cytotoxicity assay; type: cell-based, human; details: human, A549 cells
[3] = system: IAV H1N1 strain A/Puerto Rico/8/1934; experiment: microbe, parasite or virus in culture; type: cell-based, influenza A virus
[4] = system: IAV H1N1 strain A/Puerto Rico/8/1934; experiment: microbe, parasite or virus in culture; type: cell-based, influenza A virus; details: for IC50: Influenza A virus, H1N1, A549, 48 h
[5] = system: IAV H1N1 strain A/Puerto Rico/8/1934; experiment: microbe, parasite or virus in culture; type: cell-based, influenza A virus; remark: listed apart in the source
[6] = system: IAV H1N1 strain A/Puerto Rico/8/1934; experiment: microbe, parasite or virus in culture; type: cell-based, influenza A virus; remark: listed apart in the source
[7] = system: IAV H1N1 strain A/Puerto Rico/8/1934; experiment: microbe, parasite or virus in culture; type: cell-based, influenza A virus; remark: listed apart in the source
[8] = system: IAV H1N1 strain A/Puerto Rico/8/1934; type: cell-based, influenza A virus
[9] = system: host antiviral genes (IFITM-1, ISG15, ISG20, Mx-A, OAS-1, RSAD2, SHFL) in A549 cells; type: cell-based, human
[10] = system: dengue virus serotype 2 (DENV-2); details: cells treated 2 h before viral infection (-2 h); ref 15 (Oo et al.); cited from earlier work
[11] = after 48 h of incubation at concentrations of up to 1000 μM

| Compound | cytotoxicity on A549 cells ([1]; after 48 h of incubation at concentrations of up to 5000 μM) | CC50 at 3 days [2] [µM] | viral RNA reduction, post-entry assay ([3]; 25 μM) | IC50 ([3]; Influenza A virus, H1N1, A549, read-out: IC50 of diosmin, post-entry assay) [µM] | viral RNA levels [4] | IC50 [4] [µM] | viral RNA reduction, virucidal assay ([5]; 25 μM) | IC50 ([5]; Influenza A virus, H1N1, A549, read-out: IC50 of diosmin, virucidal assay) [µM] | viral RNA reduction, attachment assay ([6]; 25 μM) | IC50 ([6]; Influenza A virus, H1N1, A549, read-out: IC50 of diosmin, attachment assay) [µM] | reduction of viral RNA, entry assay ([7]; 25 μM) | IC50 ([7]; Influenza A virus, H1N1, A549, read-out: IC50 of diosmin, entry assay) [µM] | percentage of viral RNA copy numbers vs virus control [8] | fold change of ISG15 expression (relative quantification) [9] | fold change of Mx-A expression (relative quantification) [9] | fold change of OAS-1 expression (relative quantification) [9] | fold change of SHFL expression (relative quantification) [9] | suppression of DENV-2 RNA [10] | cytotoxicity on A549 cells [1, 11] |
| --- | --- | --- | --- | --- | --- | --- | --- | --- | --- | --- | --- | --- | --- | --- | --- | --- | --- | --- | --- |
| COc1ccc(-c2cc(=O)c3c(O)cc(O[C@@H]4O[C@H](CO[C@@H]5O[C@@H](C)[C@H](O)[C@@H](O)[C@H]5O)[C@@H](O)[C@H](O)[C@H]4O)cc3o2)cc1O [Diosmin, diosmetin 7-O-rutinoside] | no significant cytotoxicity | 11300 | exceeding 40% | 12.2 ± 1.55 | less than 20% | 2.91 ± 3.22 | exceeding 40% | 41.3 ± 4.56 | exceeding 40% | 13.3 ± 2.37 | under 40% | 39.2 ± 0.63 | significant reduction | 6.774 | 2.163 | 2.035 | 4.148 | over 50% |  |
| O=c1c(O)c(-c2ccc(O)c(O)c2)oc2cc(O)ccc12 [Fisetin] |  | 1190 ± 3.52 |  |  |  | 143 ± 6.19 |  |  |  |  |  |  |  |  |  |  |  |  | no significant cytotoxicity |
| O=c1cc(-c2ccc(O)c(O)c2)oc2c([C@@H]3O[C@H](CO)[C@@H](O)[C@H](O)[C@H]3O)c(O)cc(O)c12 [Orientin] |  | 1043 ± 3.41 |  |  |  | 8.98 ± 2.03 |  |  |  |  |  |  |  |  |  |  |  |  | no significant cytotoxicity |
